Article PMC8160911, “Anti-Melanogenic Properties of Velutin and Its Analogs” (Molecules, 2021)
“Also recorded” adds a separate entry of the source.

Target: T1, mushroom tyrosinase (Agaricus bisporus, UniProt C7FF04)
T1 construct: purchased Sigma-Aldrich
T1 sequence (C7FF04 1-392 limits assumed): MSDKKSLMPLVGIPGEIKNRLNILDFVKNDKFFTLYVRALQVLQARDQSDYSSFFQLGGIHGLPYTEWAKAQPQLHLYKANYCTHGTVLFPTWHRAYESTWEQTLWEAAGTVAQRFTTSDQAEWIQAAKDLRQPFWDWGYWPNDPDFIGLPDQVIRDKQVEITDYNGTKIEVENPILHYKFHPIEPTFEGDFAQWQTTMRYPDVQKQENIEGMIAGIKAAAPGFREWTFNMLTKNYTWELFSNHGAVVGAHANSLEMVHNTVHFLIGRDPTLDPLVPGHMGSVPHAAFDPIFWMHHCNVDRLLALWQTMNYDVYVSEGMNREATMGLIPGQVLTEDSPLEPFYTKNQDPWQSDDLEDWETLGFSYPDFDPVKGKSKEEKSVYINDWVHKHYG
Test: In vitro mushroom tyrosinase inhibition (dopachrome formation from L-tyrosine)
Format: biochemical
Conditions: not given
Protocol: The inhibitory effect of velutin derivatives on tyrosinase activity was assessed by the amount of dopachrome synthesized from the catalytic reaction of tyrosinase. […] Then, 100 μL of 0.4 mM L-tyrosine was added to each well, followed by incubation for an additional 10 min at 37 °C.
Compound `COc1cc(O)c2c(=O)cc(-c3ccc(O)cc3)oc2c1` [Compound V4, Genkwanin] has an IC50 of 204 µM.

Same assay, conditions: 50 U/mL mushroom tyrosinase, L-tyrosine substrate; read-out: IC50 in Mushroom Tyrosinase Activity
Work on `COc1cc(O)c2c(=O)cc(-c3ccc(O)c(OC)c3)oc2c1` [Compound V1, Velutin] yielded an IC50 of 910 µM.
For `COc1cc(O)c2c(=O)cc(-c3ccc(O)c(O)c3)oc2c1` [Compound V8, 2-(3,4-Dihydroxyphenyl)-5-hydroxy-7-methoxy-4H-chromen-4-one], the IC50 was 202 µM.
`COc1cc(O)c2c(=O)cc(-c3ccc(OC)c(OC)c3)oc2c1` [Compound V9, 2-(3,4-Dimethoxyphenyl)-5-hydroxy-7-methoxy-4H-chromen-4-one] gave an IC50 of 715 µM.
In the case of `O=c1cc(-c2ccc(O)c(O)c2)oc2cc(O)cc(O)c12` [Compound V11, luteolin], the IC50 is reported as 36.7 µM.

System: B16F10 murine melanoma cells
Test: Cell viability / cytotoxicity by MTT assay
Format: cell-based
Conditions: 20 μM
Protocol: (§1) B16F10 murine melanoma cells were cultured in DMEM medium (Gibco, Gaithersburg, USA) supplemented with 10% heat-inactivated fetal bovine serum (Gibco), 100 units/mL penicillin, and 100 μg/mL streptomycin (Gibco), at 37 °C under humidified 5% CO2.
The viability of B16F10 cells was determined using an MTT assay, as previously described. In brief, B16F10 cells were seeded in 24-well plates at a density of 1 × 10^4 cells per well. After 24 h, the cells were treated with the indicated concentrations of velutin derivatives for 48 h. The cells were then incubated with MTT solution for 4 h, and the reduced formazan crystals were dissolved in DMSO. The resulting solution was transferred to 96-well plates, and the absorbance was measured at 540 nm, using a SpectraMax M5 Multi-Mode microplate reader.
Figure 2 Cytotoxicity of velutin derivatives in the B16F10 melanoma cells. B16F10 cells were treated with 0.1% DMSO as vehicle, or with 20 μM of each derivative, for 24 h. Cell viability was determined by the MTT assay, as described in the Experimental Section. Data are expressed as the mean ± SD of three independent experiments (** p < 0.005, *** p < 0.001 compared to the control cells).
In the case of `COc1cc(O)c2c(=O)cc(-c3ccc(O)c(O)c3)oc2c1` [Compound V8, 2-(3,4-Dihydroxyphenyl)-5-hydroxy-7-methoxy-4H-chromen-4-one], the death rate is reported as 71.8%.
`COc1cc(OC)c2c(=O)cc(-c3ccc(OC)c(OC)c3)oc2c1` [Compound V10, 2-(3,4-Dimethoxyphenyl)-5,7-dimethoxy-4H-chromen-4-one] showed a death rate of 24.0%.
Compound `O=c1cc(-c2ccc(O)c(O)c2)oc2cc(O)cc(O)c12` [Compound V11, luteolin] has a death rate of 69.7%.

Same assay, conditions: concentrations up to 20 μM
For `O=c1cc(-c2ccc(O)c(O)c2)oc2cc(O)cc(O)c12` [Compound V11, luteolin], the “effect on cell viability / cytotoxicity” value was “cytotoxicity”.

System: not listed separately
Test: ABTS free radical scavenging activity
Conditions: not given
Protocol: In order to evaluate the antioxidant activity of the velutin derivatives, the ABTS radical scavenging activity was determined, as previously described. To generate the ABTS radical, 10 mL of 7 mM ABTS was mixed with 176 μL of 140 mM potassium peroxydisulfate in dH2O, and incubated in the dark at room temperature (RT) for 16 h, prior to use. The ABTS radical solution was diluted with absolute methanol, to obtain an absorbance of near 0.7 at 734 nm. Aliquots of 100 μL of each derivative in the indicated concentration range 2 to 200 μM were added to 100 μL of the diluted ABTS radical solution, and incubated for 10 min in the dark at RT. The absorbance was then measured at 732 nm using a SpectraMax M5 Multi-Mode microplate reader (Molecular Devices, Sunnyvale, CA, USA). The ABTS radical scavenging activity was calculated as follows:ABTS radical scavenging activity (%) = 1 − (Asample/Acontrol) × 100(1)
In the case of `COc1cc(OC)c2c(=O)cc(-c3ccc(OC)c(OC)c3)oc2c1` [Compound V10, 2-(3,4-Dimethoxyphenyl)-5,7-dimethoxy-4H-chromen-4-one], the “effect on radical scavenging activity” value is reported as “no significant effect”.
In the case of `O=c1cc(-c2ccccc2)oc2ccccc12` [Compound V12, 2-Phenylchromen-4-one], the “effect on radical scavenging activity” value is reported as “no significant effect”.

Same assay, conditions: 10 min in the dark at RT
Work on `OC[C@H]1O[C@@H](Oc2ccc(O)cc2)[C@H](O)[C@@H](O)[C@@H]1O` [Arbutin, arbutin, reference compound] yielded an EC50 of 12.7 µM.
With `COc1cc(O)c2c(=O)cc(-c3ccc(O)c(OC)c3)oc2c1` [Compound V1, Velutin] the EC50 was 23.1 µM.
With `COc1ccc2c(=O)cc(-c3ccc(O)c(OC)c3)oc2c1` [Compound V2, 2-(4-Hydroxy-3-methoxyphenyl)-7-methoxy-4H-chromen-4-one] the EC50 was 21.9 µM.
In the case of `COc1cc(-c2cc(=O)c3c(O)cccc3o2)ccc1O` [Compound V3, 5-Hydroxy-2-(4-hydroxy-3-methoxyphenyl)-4H-chromen-4-one], the EC50 is reported as 23.3 µM.
`COc1cc(O)c2c(=O)cc(-c3ccc(O)cc3)oc2c1` [Compound V4, Genkwanin] gave an EC50 of 55.7 µM.
With `COc1cccc(-c2cc(=O)c3c(O)cc(OC)cc3o2)c1` [Compound V5, 5-Hydroxy-7-methoxy-2-(3-methoxyphenyl)-4H-chromen-4-one] the EC50 was 96.6 µM.
With `COc1cc(OC)c2c(=O)cc(-c3ccc(O)c(OC)c3)oc2c1` [Compound V6, 2-(4-Hydroxy-3-methoxyphenyl)-5,7-dimethoxy-4H-chromen-4-one] the EC50 was 23.7 µM.
In the case of `COc1cc(-c2cc(=O)c3c(O)cc(O)cc3o2)ccc1O` [Compound V7, Chrysoeriol], the EC50 is reported as 22.1 µM.
In the case of `COc1cc(O)c2c(=O)cc(-c3ccc(O)c(O)c3)oc2c1` [Compound V8, 2-(3,4-Dihydroxyphenyl)-5-hydroxy-7-methoxy-4H-chromen-4-one], the EC50 is reported as 5.47 µM.
Compound `COc1cc(O)c2c(=O)cc(-c3ccc(OC)c(OC)c3)oc2c1` [Compound V9, 2-(3,4-Dimethoxyphenyl)-5-hydroxy-7-methoxy-4H-chromen-4-one] has an EC50 of 100 µM.
`O=c1cc(-c2ccc(O)c(O)c2)oc2cc(O)cc(O)c12` [Compound V11, luteolin] gave an EC50 of 6.13 µM.

System: B16F10 melanoma cells
Test: Melanin content in α-MSH-stimulated melanoma cells
Format: cell-based, murine
Conditions: 100 nM α-MSH alone, 48 h
Protocol: as §1
The melanin content was determined as previously described, with some modifications. The melanoma cells were cultured in a 6-well plate for 24 h. They were treated with the indicated concentrations of velutin derivatives for a further 48 h, in the presence of 100 nM α–MSH. After washing twice with chilled Dulbecco’s phosphate buffered saline supplemented with calcium chloride and magnesium chloride (D-PBS, Gibco), the resulting cells were detached by incubation with trypsin–EDTA solution. After centrifugation at 1000 rpm for 3 min, the cell pellet was dissolved in 150 μL of 1 M NaOH containing 10% DMSO for 1 h at 60 °C. The melanin content was determined by the absorbance at 405 nm, using the microplate reader.
(§2) Figure 3 Effect of velutin derivatives on intracellular melanin synthesis in B16F10 melanoma cells. B16F10 cells were treated with 0.1% DMSO as vehicle, or with 10 μM of each derivative, for 48 h. (A) Melanin content in the B16F10 cells was determined using a photometric method, as described in the Experimental Section. (B) Cellular tyrosinase activity was determined by measuring dopachrome generated by the enzymatic reaction of cell lysates with L-DOPA. Data are expressed as the mean ± SD of three independent experiments (** p < 0.005, *** p < 0.001 as compared to α-MSH-stimulated B16F10 cells).
For “α-melanocyte stimulating hormone [α–MSH, reference compound]”, the “increase of melanin content by α-MSH” value was 1.9 fold.

Same assay, conditions: 10 μM derivative, 48 h, 100 nM α-MSH
In the case of `COc1cc(OC)c2c(=O)cc(-c3ccc(O)c(OC)c3)oc2c1` [Compound V6, 2-(4-Hydroxy-3-methoxyphenyl)-5,7-dimethoxy-4H-chromen-4-one], the “increase of melanin synthesis” value is reported as 3.0 fold.

Same assay, conditions: 10 μM, 48 h, 100 nM α-MSH
For `COc1cc(O)c2c(=O)cc(-c3ccc(O)c(OC)c3)oc2c1` [Compound V1, Velutin], the “effect on α-MSH-stimulated melanogenesis” value was “completely inhibited”.
In the case of `COc1ccc2c(=O)cc(-c3ccc(O)c(OC)c3)oc2c1` [Compound V2, 2-(4-Hydroxy-3-methoxyphenyl)-7-methoxy-4H-chromen-4-one], the “effect on α-MSH-stimulated melanogenesis” value is reported as “completely inhibited”.
With `COc1cc(-c2cc(=O)c3c(O)cc(O)cc3o2)ccc1O` [Compound V7, Chrysoeriol] the “effect on α-MSH-stimulated melanogenesis” value was “not significantly changed; also recorded: no effect”.
In the case of `COc1cc(O)c2c(=O)cc(-c3ccc(OC)c(OC)c3)oc2c1` [Compound V9, 2-(3,4-Dimethoxyphenyl)-5-hydroxy-7-methoxy-4H-chromen-4-one], the “effect on α-MSH-stimulated melanogenesis” value is reported as “not significantly changed”.
For `COc1cc(OC)c2c(=O)cc(-c3ccc(OC)c(OC)c3)oc2c1` [Compound V10, 2-(3,4-Dimethoxyphenyl)-5,7-dimethoxy-4H-chromen-4-one], the “effect on α-MSH-stimulated melanogenesis” value was “not significantly changed”.

Same assay, conditions: Mus musculus, B16-F10, 10 μM, 48 h, 100 nM α-MSH, read-out: inhibition of α-MSH-stimulated melanogenesis
`COc1cc(-c2cc(=O)c3c(O)cccc3o2)ccc1O` [Compound V3, 5-Hydroxy-2-(4-hydroxy-3-methoxyphenyl)-4H-chromen-4-one] gave an inhibition at 10 µM of 50.7%.
Work on `COc1cc(O)c2c(=O)cc(-c3ccc(O)cc3)oc2c1` [Compound V4, Genkwanin] yielded an inhibition at 10 µM of 69.1%.
In the case of `COc1cccc(-c2cc(=O)c3c(O)cc(OC)cc3o2)c1` [Compound V5, 5-Hydroxy-7-methoxy-2-(3-methoxyphenyl)-4H-chromen-4-one], the inhibition at 10 µM is reported as 39.3%.

System: intracellular tyrosinase in B16F10 cells
Test: Cellular tyrosinase activity in α-MSH-stimulated melanoma cells (L-DOPA to dopachrome in lysates)
Format: cell-based, murine
Conditions: 100 nM α-MSH alone, 48 h
Protocol: as §1
Tyrosinase activity in B16 cells was examined on the basis of the amount of dopachrome produced from the catalytic reaction of intracellular tyrosinase. In brief, the melanoma cells were cultured in a 6-well plate for 24 h, followed by treatment with different concentrations of velutin derivatives for a further 48 h, in the presence of 100 nM of α–MSH. After washing twice with ice-cold D-PBS, the cells were lysed in 200 μL of radio-immunoprecipitation assay (RIPA) buffer (Sigma-Aldrich), containing protease and phosphatase inhibitors. After centrifugation of the cell lysate collected from each well at 15,000× g for 15 min, 100 μL of supernatant was mixed with 100 μL of 1 mM L-DOPA in PBS (pH 6.8), followed by incubation for 30 min at 37 °C. The absorbance of dopachrome was measured at 475 nm using the microplate reader. Data were normalized with protein concentration, determined by bicinchoninic acid assay.
as §2
For “α-melanocyte stimulating hormone [α–MSH, reference compound]”, the “activation of tyrosinase by α-MSH” value was “approximately 1.7 fold”.

Same assay, conditions: 10 μM, 48 h, 100 nM α-MSH
In the case of `COc1cc(O)c2c(=O)cc(-c3ccc(O)c(OC)c3)oc2c1` [Compound V1, Velutin], the “reversal of α-MSH-mediated tyrosinase activation” value (from here on “reversal”) is reported as 87%.
With `COc1ccc2c(=O)cc(-c3ccc(O)c(OC)c3)oc2c1` [Compound V2, 2-(4-Hydroxy-3-methoxyphenyl)-7-methoxy-4H-chromen-4-one] the “effect on α-MSH-mediated intracellular tyrosinase activation” value was “did not”.
In the case of `COc1cc(-c2cc(=O)c3c(O)cccc3o2)ccc1O` [Compound V3, 5-Hydroxy-2-(4-hydroxy-3-methoxyphenyl)-4H-chromen-4-one], the “reversal” value is reported as 97%.
For `COc1cc(O)c2c(=O)cc(-c3ccc(O)cc3)oc2c1` [Compound V4, Genkwanin], the “reversal” value was 100%.
With `COc1cccc(-c2cc(=O)c3c(O)cc(OC)cc3o2)c1` [Compound V5, 5-Hydroxy-7-methoxy-2-(3-methoxyphenyl)-4H-chromen-4-one] the “reversal” value was 80%.
For `COc1cc(-c2cc(=O)c3c(O)cc(O)cc3o2)ccc1O` [Compound V7, Chrysoeriol], the “effect on α-MSH-mediated intracellular tyrosinase activation” value was “did not; also recorded: no effect”.
With `COc1cc(O)c2c(=O)cc(-c3ccc(OC)c(OC)c3)oc2c1` [Compound V9, 2-(3,4-Dimethoxyphenyl)-5-hydroxy-7-methoxy-4H-chromen-4-one] the “effect on α-MSH-mediated intracellular tyrosinase activation” value was “did not”.
For `COc1cc(OC)c2c(=O)cc(-c3ccc(OC)c(OC)c3)oc2c1` [Compound V10, 2-(3,4-Dimethoxyphenyl)-5,7-dimethoxy-4H-chromen-4-one], the “effect on α-MSH-mediated intracellular tyrosinase activation” value was “did not”.
